Assays:
[1] = test system: immobilized carbonic anhydrase; assay: SPR kinetic analysis, traditional (stepped/sequential multiple) injection method, thermodynamic analysis; settings: HEPES buffer saline pH 7.4, 10, 20, 30, 40 C, 1:1 binding model
Protocol: (§1) In Example 1, the kinetic values for the interaction between carboxybeneze sulfonamide and immobilized carbonic anhydrase were determined using a standard multiple injection method and the in situ dilution method described herein. In the classical approach sequential injection method (FIGS. 4A-4D) a series of individual concentrations were prepared as a serial doubling dilution set starting from a neat concentration of 40 mM giving a total of nine different concentrations. These concentrations were made up in the running buffer (i.e HEPES buffer saline, pH 7.4). […] of each sample was injected at […] and allowed dissociate for 300 seconds. Each concentration was repeated in duplicate and the entire analysis was repeated at four different analysis temperatures (10 C, 20 C, 30 C, 40 C—FIGS. 4A-D, respectively). […] In this case a total of three interaction curves is recorded at three different temperatures representing a minimal data set that can be recorded at least an order faster than the conventional approach even normalized for the number replicates and the number of temperatures used. A single neat sample (40 mM) was injected using the in-situ-dilution injection and a serial doubling dilution of analyte was performed on-the-fly yielding a dose response curve. Dissociation was monitored for 200 seconds. This was repeated at three different temperatures. A blank injection was also included at each temperature for double referencing.
(§2) In both data sets the samples were injected over a protein coated and a non-coated surface to enable double referencing of the binding response curves. The resulting referenced binding response curves were then fitted with a kinetic 1:1 binding interaction model and the fitted curves are shown in red. The kinetic values were then analyzed thermodynamically to determined thermodynamic constants for the interaction and these are shown in Tables 1 and 2 below.

[2] = test system: immobilized carbonic anhydrase; assay: SPR kinetic analysis, in situ dilution injection method, thermodynamic analysis; settings: three temperatures (10, 25, 35 °C), 1:1 binding model
Protocol: as §1, §2

Q: How did the “ΔG‡ Association” value ([1]; association) turn out when `NS(=O)(=O)c1ccc(C(=O)O)cc1` [carboxybeneze sulfonamide] was run?
A: 11.60 kcal/mol

Q: And the “ΔH‡ Association” value ([1]; association)?
A: 3.96 kcal/mol

Q: What about the “ΔS‡ Association” value ([1]; association) of the same compound?
A: −26.1 cal/mol K

Q: And the “ΔG‡ Dissociation” value ([1]; dissociation)?
A: 19.32 kcal/mol

Q: And the “ΔH‡ Dissociation” value ([1]; dissociation)?
A: 14.63 kcal/mol

Q: And the “ΔS‡ Dissociation” value ([1]; dissociation)?
A: −16.0 cal/mol K

Q: What about the “ΔG‡ Association” value ([2]; association) of the same compound?
A: 11.1 kcal/mol

Q: And the “ΔH‡ Association” value ([2]; association)?
A: 4.1 kcal/mol

Q: And the “ΔS‡ Association” value ([2]; association)?
A: −24 cal/mol K

Q: What about the “ΔG‡ Dissociation” value ([2]; dissociation) of the same compound?
A: 18.8 kcal/mol

Q: What about the “ΔH‡ Dissociation” value ([2]; dissociation) of the same compound?
A: 13.1 kcal/mol

Q: And the “ΔS‡ Dissociation” value ([2]; dissociation)?
A: −20 cal/mol K
